The text below walks through data of ChEMBL document CHEMBL3217554, “Fast and effective identification of the bioactive compounds and their targets from medicinal plants via computational chemical biology approach” (Medchemcomm, 2011).

Structures are written as SMILES.

Chain of Dipeptidyl peptidase 4 (P27487 whole entry): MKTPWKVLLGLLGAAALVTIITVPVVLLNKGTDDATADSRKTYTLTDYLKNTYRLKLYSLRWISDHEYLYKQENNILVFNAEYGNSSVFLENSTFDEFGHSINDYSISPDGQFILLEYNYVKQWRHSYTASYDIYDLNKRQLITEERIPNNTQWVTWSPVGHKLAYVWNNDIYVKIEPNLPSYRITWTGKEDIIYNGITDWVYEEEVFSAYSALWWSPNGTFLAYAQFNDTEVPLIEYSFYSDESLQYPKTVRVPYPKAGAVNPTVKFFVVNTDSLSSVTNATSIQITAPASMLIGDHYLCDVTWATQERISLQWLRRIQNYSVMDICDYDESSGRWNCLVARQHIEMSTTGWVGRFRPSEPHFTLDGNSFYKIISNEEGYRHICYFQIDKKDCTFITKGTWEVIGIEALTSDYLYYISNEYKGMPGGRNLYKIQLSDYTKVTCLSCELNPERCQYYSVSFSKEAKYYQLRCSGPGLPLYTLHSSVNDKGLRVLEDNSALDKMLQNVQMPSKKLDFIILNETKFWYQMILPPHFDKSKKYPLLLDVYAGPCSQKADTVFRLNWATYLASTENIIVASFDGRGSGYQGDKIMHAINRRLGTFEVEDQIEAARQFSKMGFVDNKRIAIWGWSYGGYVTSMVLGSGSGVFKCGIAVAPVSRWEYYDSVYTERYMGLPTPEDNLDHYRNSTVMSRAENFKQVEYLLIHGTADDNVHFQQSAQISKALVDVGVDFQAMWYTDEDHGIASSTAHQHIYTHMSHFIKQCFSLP

The test addresses Dipeptidyl peptidase 4 (Homo sapiens, UniProt P27487). In words: Inhibition of human DPP4 using H-Gly-Pro-AMC peptide substrate assessed as increase in fluorescence for 20 mins by fluorimetric assay.
Usually IC50 stands for the point on the concentration scale where inhibition reaches its midpoint. On to `O=C(CC(O)CCc1ccccc1)c1ccc(O)cc1` (stereo not drawn), for which the 50% inhibitory concentration (IC50) is 38.4 µM.

On to `COC(=O)C1(O)CC(O)C(O)C(OC(=O)/C=C/c2ccc(O)c(O)c2)C1` (stereo not drawn), for which the IC50 amounted to 41.4 µM.

On to `CCOC(=O)c1c(O)cc(O)c2c1OC(c1ccc(O)cc1)CC2` (stereo not drawn), for which the half-maximal inhibitory concentration (IC50) turned out to be 114 µM.

Take `CC[C@H](CC[C@@H](C)[C@H]1CC[C@H]2[C@@H]3CC=C4C[C@@H](O)CC[C@]4(C)[C@H]3CC[C@]12C)C(C)C` [BETA-SITOSTEROL]: the IC50 came out at 28.8 µM.

As to `C=C(C)[C@@H]1CC[C@]2(C(=O)O)CC[C@]3(C)[C@H](CC[C@@H]4[C@@]5(C)CC[C@H](O)C(C)(C)[C@@H]5CC[C@]43C)[C@@H]12` [BETULINIC ACID], the IC50 stood at 55.8 µM.

As for `O=C(O)/C=C/c1ccc(O)cc1` [COUMARIC ACID], the IC50 came out at 83.2 µM.

Consider `COc1cc2cc(Oc3ccc4ccc(=O)oc4c3)c(=O)oc2cc1O` [DAPHNORETIN], for which the IC50 turned out to be 87.1 µM.

Turning to `COc1ccc2c(c1OC)CN(C)c1c-2ccc2cc3c(cc12)OCO3` [DIHYDROCHELERYTHRINE], the IC50 was determined as 56.2 µM.

Turning to `CCOC(=O)/C=C/c1ccc(O)c(O)c1` [ETHYL CAFFEATE], the IC50 was 87.7 µM.

`COc1cc(O)c(C(=O)/C=C/c2ccc(O)cc2)c(OC)c1` [FLAVOKAWAIN C]: the IC50 stood at 33.1 µM.

For `O=C(/C=C/c1ccc(O[C@@H]2O[C@H](CO)[C@@H](O)[C@H](O)[C@H]2O)cc1)c1ccc(O)cc1O` [ISOLIQUIRITIN], the IC50 was 26.9 µM.

Consider `O=c1c(O)c(-c2cc(O)c(O)c(O)c2)oc2cc(O)cc(O)c12` [MYRICETIN], for which the IC50 came out at 37.1 µM.

As to `O=c1c(O)c(-c2ccc(O)c(O)c2)oc2cc(O)cc(O)c12` [QUERCETIN], the concentration for half-maximal inhibition (IC50) stood at 32.7 µM.
